From patent US20190060261A1, “ACTIVE COMBINATIONS OF PERILLIC ACID AND ACTIVITY ENHANCING SUBSTANCES” (B.R.A.I.N BIOTECHNOLOGY RESEARCH AND INFORMATION NETWORK AG, priority 2016, published 2019)
Converted amounts (≈) assume the structure as drawn. Where two headings read alike, the source gives them in different places.

Key:
[1] = system: Pseudomonas aeruginosa ATCC 9027; assay: Minimal inhibition concentration (MIC), microdilution method; assay type: cell-based; settings: for MIC: Pseudomonas aeruginosa
Description: (§1) The antimicrobial activity of different substances was examined and compared to perillic acid in vitro using the microdilution method adapted from DIN EN ISO 20776-1:2006. Besides perillic acid and its sodium salt, other organic acids like levulinic acid, p-anisic acid, benzoic acid and sorbic acid as well as alkane-1,2-diols such as hexane-1,2-diol, octane-1,2-diol and decane-1,2-diol were studied. Additionally, the commonly used preservatives 2-phenoxyethanol, 2-phenylethanol and benzyl alcohol were investigated.
(§2) All experiments were done in 96-well plates in a final volume of 200 μL. Test solutions of the investigated compounds were prepared in 25 mM buffered water. The procedure was conducted as following: 4 μL of the particular stock solution were mixed with 196 μL culture medium containing a defined inoculum of the respective target strain. Sterile controls (not inoculated) and growth controls (buffer instead of compound added) were performed. All compound concentrations were tested in triplicate for several times. The following contamination germs were examined: Escherichia coli ATCC 8739, Pseudomonas aeruginosa ATCC 9027, Stapyhlococcus aureus ATCC®6538, Bacillus subtilis subsp. spizizenii ATCC®6633, Candida albicans ATCC®10231 and Aspergillus brasiliensis ATCC®16404. The strains were cultivated either in Mueller-Hinton II Bouillon (Escherichia coli, Pseudomonas aeruginosa, Staphylococcus aureus), in yeast peptone dextrose (Bacillus subtilis, Candida albicans) or in potato dextrose medium (Aspergillus brasiliensis). All culture media were buffered with 25 mM MES-buffer. For compound testing, the plates were incubated at 37° C. for Escherichia coli, Pseudomonas aeruginosa and Staphylococcus aureus, at 28° C. for Bacillus subtilis and Candida albicans, and at 25° C. for Aspergillus brasiliensis. Plates were evaluated after 24 h and 72 h, respectively. The minimal inhibitory concentration (MIC) is defined as the concentration where no microbial growth was observed after 24 h and 72 h incubation at the specified temperature.
(§3) MIC-values are given according to the following letter code.

[2] = system: Bacillus subtilis subsp. spizizenii ATCC®6633; assay: as above; assay type: cell-based; settings: for MIC: Bacillus subtilis
Description: as §1, §2, §3

[3] = system: Aspergillus brasiliensis ATCC®16404; assay: as above; assay type: cell-based; settings: for MIC: Aspergillus brasiliensis
Description: as §1, §2, §3

[4] = system: Candida albicans ATCC®10231; assay: as above; assay type: cell-based; settings: for MIC: Candida albicans
Description: as §1, §2, §3

[5] = system: Escherichia coli ATCC 8739; assay: Minimal inhibition concentration (MIC), microdilution method adapted from DIN EN ISO 20776-1:2006; assay type: cell-based; settings: Escherichia coli
Description: as §1, §2, §3

Pseudomonas aeruginosa = assay: Combination of substances with perillic acid: reduction of the MIC of perillic acid; assay type: cell-based; settings: test compound combined with perillic acid; experiments as in Example 1
Description: as §2
(§4) Activity of perillic acid was comparably low against Gram-negative bacteria. It was thus tested whether the respective MIC could be reduced by combination of perillic acid with selected substances.
(§5) Experiments were performed as described for Example 1 above. A reduction factor was determined, expressing the reduction of the MIC of perillic acid that was achievable by combination with the combination partner. For example, a reduction factor of 2 means that the MIC of perillic acid was reduced by a factor of 2 by combination of perillic acid with the respective activity enhancing substance.

Escherichia coli = assay: as above; assay type: cell-based; settings: test compound combined with perillic acid; experiments as in Example 1
Description: as §2, §4, §5

[6] = system: Stapyhlococcus aureus ATCC®6538; assay: Minimal inhibition concentration (MIC), microdilution method; assay type: cell-based, Staphylococcus aureus; settings: for MIC: Staphylococcus aureus
Description: as §1, §2, §3

[7] = ATCC9027, read-out: MIC [A to D] Pseudomonas aeruginosa
[8] = ATCC8739, read-out: MIC [A to D] Escherichia coli
[9] = ATCC9027, Mueller-Hinton II Bouillon, 25 mM MES-buffer, 37° C., no growth after 24 h and 72 h, read-out: MIC [A to D] Pseudomonas aeruginosa
[10] = ATCC6633, yeast peptone dextrose, 25 mM MES-buffer, 28° C., no growth after 24 h and 72 h, read-out: MIC [A to D] Bacillus subtilis
[11] = ATCC16404, potato dextrose medium, 25 mM MES-buffer, 25° C., no growth after 24 h and 72 h, read-out: MIC [A to D] Aspergillus brasiliensis
[12] = ATCC10231, yeast peptone dextrose, 25 mM MES-buffer, 28° C., no growth after 24 h and 72 h, read-out: MIC [A to D] Candida albicans
[13] = ATCC8739, Mueller-Hinton II Bouillon, 25 mM MES-buffer, 37° C., no growth after 24 h and 72 h, read-out: MIC [A to D] Escherichia coli
[14] = ATCC6538, Mueller-Hinton II Bouillon, 25 mM MES-buffer, 37° C., no growth after 24 h and 72 h, read-out: MIC [A to D] Staphylococcus aureus
[15] = yeast peptone dextrose, 25 mM MES-buffer, 28° C., no growth after 24 h and 72 h
[16] = potato dextrose medium, 25 mM MES-buffer, 25° C., no growth after 24 h and 72 h
[17] = Mueller-Hinton II Bouillon, 25 mM MES-buffer, 37° C., no growth after 24 h and 72 h

SMILES | MIC [1, 7] [µg/mL] | MIC ([2]; ATCC6633, read-out: MIC [A to D] Bacillus subtilis) [µg/mL] | MIC ([3]; ATCC16404, read-out: MIC [A to D] Aspergillus brasiliensis) [µg/mL] | MIC ([4]; ATCC10231, read-out: MIC [A to D] Candida albicans) [µg/mL] | MIC [5, 8] [µg/mL] | Reduction factor (reduction of the MIC of perillic acid by combination with the test compound) Pseudomonas aeruginosa (Pseudomonas aeruginosa) | Reduction factor (reduction of the MIC of perillic acid by combination with the test compound) Escherichia coli (Escherichia coli) | MIC ([6]; ATCC6538, read-out: MIC [A to D] Staphylococcus aureus) [µg/mL] | MIC [1, 9] [µg/mL] | MIC [2, 10] [µg/mL] | MIC [3, 11] [µg/mL] | MIC [4, 12] [µg/mL] | MIC [5, 13] [µg/mL] | MIC [6, 14] [µg/mL] | MIC [A to D] Bacillus subtilis [2, 15] | MIC [A to D] Aspergillus brasiliensis [3, 16] | MIC [A to D] Candida albicans [4, 15] | MIC [A to D] Staphylococcus aureus [6, 17] | MIC [A to D] Pseudomonas aeruginosa [1, 17]
OCCOc1ccccc1 [2-Phenoxyethanol, reference compound] | 5000 to 10000 (≈ 36.2 to 72.4 mM) | 5000 to 10000 (≈ 36.2 to 72.4 mM) | 5000 to 10000 (≈ 36.2 to 72.4 mM) | 5000 to 10000 (≈ 36.2 to 72.4 mM) | 5000 to 10000 (≈ 36.2 to 72.4 mM) | 20 | 30 | 5000 to 10000 (≈ 36.2 to 72.4 mM) | – | – | – | – | – | – | – | – | – | – | –
OCCc1ccccc1 [2-Phenylethanol, reference compound] | – | – | – | – | – | 8 | 40 | – | 5000 to 10000 (≈ 40.9 to 81.9 mM) | 5000 to 10000 (≈ 40.9 to 81.9 mM) | 5000 to 10000 (≈ 40.9 to 81.9 mM) | 5000 to 10000 (≈ 40.9 to 81.9 mM) | 5000 to 10000 (≈ 40.9 to 81.9 mM) | 5000 to 10000 (≈ 40.9 to 81.9 mM) | – | – | – | – | –
OCc1ccccc1 [Benzyl Alcohol, reference compound] | – | – | – | – | – | 5 | 20 | – | 5000 to 10000 (≈ 46.2 to 92.5 mM) | 5000 to 10000 (≈ 46.2 to 92.5 mM) | 5000 to 10000 (≈ 46.2 to 92.5 mM) | 5000 to 10000 (≈ 46.2 to 92.5 mM) | 5000 to 10000 (≈ 46.2 to 92.5 mM) | 5000 to 10000 (≈ 46.2 to 92.5 mM) | – | – | – | – | –
CCCCCCCCC(O)CO (stereo not drawn) [Decane-1,2-diol] | – | – | – | – | – | – | – | – | 1000 to 5000 (≈ 5.74 to 28.7 mM) | – | – | – | 1000 to 5000 (≈ 5.74 to 28.7 mM) | – | D (MIC<0.1% (w/v)) | D (MIC<0.1% (w/v)) | D (MIC<0.1% (w/v)) | D (MIC<0.1% (w/v)) | –
CC(=O)C1C(=O)C=C(C)OC1=O (stereo not drawn) [Dehydroacetic acid] | 1000 to 5000 (≈ 5.95 to 29.7 mM) | – | – | – | 1000 to 5000 (≈ 5.95 to 29.7 mM) | – | – | – | – | – | – | – | – | – | D (MIC<0.1% (w/v)) | D (MIC<0.1% (w/v)) | D (MIC<0.1% (w/v)) | D (MIC<0.1% (w/v)) | –
CCCCCCCCCCC(O)CO (stereo not drawn) [Dodecane-1,2-diol] | – | – | – | – | – | – | – | – | – | – | – | – | 5000 to 10000 (≈ 24.7 to 49.4 mM) | – | D (MIC<0.1% (w/v)) | D (MIC<0.1% (w/v)) | D (MIC<0.1% (w/v)) | D (MIC<0.1% (w/v)) | D (MIC<0.1% (w/v))
CCCCC(O)CO (stereo not drawn) [Hexane-1,2-diol] | – | – | – | – | – | – | – | – | 5000 to 10000 (≈ 42.3 to 84.6 mM) | – | 5000 to 10000 (≈ 42.3 to 84.6 mM) | – | 5000 to 10000 (≈ 42.3 to 84.6 mM) | – | A (MIC>1% (w/v)) | – | A (MIC>1% (w/v)) | A (MIC>1% (w/v)) | –
